ChEMBL document CHEMBL1201862, “PubChem BioAssay data set” (2004)
Activity calls are given as the source filed them.

Key:
[1] = target: FAD-linked sulfhydryl oxidase ALR (Homo sapiens, UniProt P55789); assay: ALR-catalysed DTT oxidation blockers – biochemical, H2O2 detection, luminescence, cherry-pick, dose response (AID 493248)
[2] = Trypanosoma cruzi growth suppression in host cells – NIH3T3 host cells, beta-gal luminescence, confirmation (AID 2044); format: functional, cell-based;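 further: intracellular parasites grown in NIH/3T3 mouse fibroblasts as host cells; luminescent beta-galactosidase reporter signal from transgenic T. cruzi replicating inside host cells; inhibitors lower the luminescence signal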
[3] = NIH3T3 cell viability loss – ATP luminescence, mouse fibroblasts, counter-screen, dose response (AID 2010); format: functional, cell-based;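 further: cells exposed to compound for about 90 hours before reading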
HEK293 [4] = assay: cells; format: functional, cell-based; conditions: Homo sapiens
HEK293 [5] = assay: NOD2 signaling inhibitors in MDP-stimulated cells, cell-based, uHTS, luminescence (AID 2001); format: functional; conditions: Homo sapiens
HEK293 [6] = assay: inhibition of NOD1-driven NF-kB reporter – cell-based, luminescence, uHTS, primary screen (AID 1578); format: functional; conditions: Homo sapiens
HEK293 [7] = assay: cells; format: functional, cell-based; conditions: Homo sapiens; remark: listed apart in the source
[8] = target: 72 kDa type IV collagenase (Homo sapiens, UniProt P08253); assay: Dose Response validation of uHTS RPN11 inhibitor hits using a MMP-2 Fluorescence assay.; format: functional
Chain of 72 kDa type IV collagenase (P08253 whole entry): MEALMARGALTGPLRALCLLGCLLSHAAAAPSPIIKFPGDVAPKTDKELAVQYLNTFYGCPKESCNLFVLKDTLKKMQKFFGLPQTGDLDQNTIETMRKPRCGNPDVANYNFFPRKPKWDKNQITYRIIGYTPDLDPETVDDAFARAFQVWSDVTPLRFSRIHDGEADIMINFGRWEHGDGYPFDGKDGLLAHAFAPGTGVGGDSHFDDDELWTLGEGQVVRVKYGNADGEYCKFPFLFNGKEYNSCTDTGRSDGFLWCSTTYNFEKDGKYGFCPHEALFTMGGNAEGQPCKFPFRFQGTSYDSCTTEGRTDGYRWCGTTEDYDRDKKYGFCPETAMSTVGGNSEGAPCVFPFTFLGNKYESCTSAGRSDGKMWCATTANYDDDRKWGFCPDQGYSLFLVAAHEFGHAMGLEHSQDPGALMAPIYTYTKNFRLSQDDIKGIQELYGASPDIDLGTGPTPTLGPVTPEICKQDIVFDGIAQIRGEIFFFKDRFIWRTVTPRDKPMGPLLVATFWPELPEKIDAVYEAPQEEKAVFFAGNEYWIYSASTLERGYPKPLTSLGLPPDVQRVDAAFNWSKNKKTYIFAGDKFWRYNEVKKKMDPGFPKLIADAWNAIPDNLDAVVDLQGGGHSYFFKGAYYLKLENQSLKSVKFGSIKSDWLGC

Prothrombin = Prothrombin (Bos taurus, UniProt P00735); assay: thrombin protease inhibitors – biochemical, fluorescence polarization, uHTS hits, dose response (AID 602369); format: functional
[9] = target: 26S proteasome non-ATPase regulatory subunit 14 (Homo sapiens, UniProt O00487); assay: inhibition of proteasome subunit RPN11 – biochemical, fluorescence polarization, uHTS hits, confirmation (AID 602368); format: functional
Chain of 26S proteasome non-ATPase regulatory subunit 14 (O00487 whole entry): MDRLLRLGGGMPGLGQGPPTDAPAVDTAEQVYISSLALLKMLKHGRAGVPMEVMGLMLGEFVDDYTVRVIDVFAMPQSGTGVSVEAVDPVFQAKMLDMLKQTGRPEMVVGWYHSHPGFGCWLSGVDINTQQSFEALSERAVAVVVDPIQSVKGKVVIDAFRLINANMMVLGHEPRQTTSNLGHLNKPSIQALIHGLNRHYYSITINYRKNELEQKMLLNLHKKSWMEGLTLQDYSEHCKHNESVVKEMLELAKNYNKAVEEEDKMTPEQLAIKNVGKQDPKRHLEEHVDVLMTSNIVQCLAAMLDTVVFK

Jurkat = assay: SAR Analysis of small molecule inhibitors of T-cell specific antigen receptor-induced NF-kB activation in a Jurkat cell line using a luminescence assay - Set 2. [Related pubchem assays (depositor defined):AID435003, AID435012, AID465]; format: functional, cell-based; conditions: Homo sapiens
HEK293 [10] = assay: HEK293T cell viability loss, resazurin readout – resazurin fluorescence, cytotoxicity control for NF-kB activator project, SAR follow-up (AID 493251); format: functional, cell-based; conditions: Homo sapiens
HEK293 [11] = assay: SAR Analysis of small molecule inhibitors of T-cell specific antigen receptor-induced NF-kB activation in a HEK-293T cell line using a luminescence assay - Set 2. [Related pubchem assays (depositor defined):AID435003, AID435012, AID489026]; format: functional, cell-based; conditions: Homo sapiens
[12] = Luminescence Cell-Based Dose Response HTS to Identify Activators of Luciferase Translation or Activity in H4 […] Cells. [Related pubchem assays: 1829 (Project Summary), 1814 (Primary HTS)]; format: functional
Escherichia coli = assay: microbe, parasite or virus in culture
H4 = assay: Luminescence Cell-Based Dose Response HTS to Identify Activators of 5'UTR Stem-Loop Driven Prion Protein mRNA Translation in H4 Neuroglioblastoma Cells. [Related pubchem assays: 1829 (Project Summary), 1814 (Primary HTS)]; format: functional; conditions: Homo sapiens
[13] = Luminescence Cell-Based Dose Confirmation HTS to Identify Activators of 5'UTR Stem-Loop Driven Alpha-Synuclein mRNA Translation in H4 Neuroglioblastoma Cells. [Related pubchem assays: 1829 (Project Summary), 1814 (Primary HTS)]; format: functional
[14] = target: T1, Histone-lysine N-methyltransferase NSD2 (Homo sapiens, UniProt O96028); format: biochemical
T1 sequence (O96028 whole entry): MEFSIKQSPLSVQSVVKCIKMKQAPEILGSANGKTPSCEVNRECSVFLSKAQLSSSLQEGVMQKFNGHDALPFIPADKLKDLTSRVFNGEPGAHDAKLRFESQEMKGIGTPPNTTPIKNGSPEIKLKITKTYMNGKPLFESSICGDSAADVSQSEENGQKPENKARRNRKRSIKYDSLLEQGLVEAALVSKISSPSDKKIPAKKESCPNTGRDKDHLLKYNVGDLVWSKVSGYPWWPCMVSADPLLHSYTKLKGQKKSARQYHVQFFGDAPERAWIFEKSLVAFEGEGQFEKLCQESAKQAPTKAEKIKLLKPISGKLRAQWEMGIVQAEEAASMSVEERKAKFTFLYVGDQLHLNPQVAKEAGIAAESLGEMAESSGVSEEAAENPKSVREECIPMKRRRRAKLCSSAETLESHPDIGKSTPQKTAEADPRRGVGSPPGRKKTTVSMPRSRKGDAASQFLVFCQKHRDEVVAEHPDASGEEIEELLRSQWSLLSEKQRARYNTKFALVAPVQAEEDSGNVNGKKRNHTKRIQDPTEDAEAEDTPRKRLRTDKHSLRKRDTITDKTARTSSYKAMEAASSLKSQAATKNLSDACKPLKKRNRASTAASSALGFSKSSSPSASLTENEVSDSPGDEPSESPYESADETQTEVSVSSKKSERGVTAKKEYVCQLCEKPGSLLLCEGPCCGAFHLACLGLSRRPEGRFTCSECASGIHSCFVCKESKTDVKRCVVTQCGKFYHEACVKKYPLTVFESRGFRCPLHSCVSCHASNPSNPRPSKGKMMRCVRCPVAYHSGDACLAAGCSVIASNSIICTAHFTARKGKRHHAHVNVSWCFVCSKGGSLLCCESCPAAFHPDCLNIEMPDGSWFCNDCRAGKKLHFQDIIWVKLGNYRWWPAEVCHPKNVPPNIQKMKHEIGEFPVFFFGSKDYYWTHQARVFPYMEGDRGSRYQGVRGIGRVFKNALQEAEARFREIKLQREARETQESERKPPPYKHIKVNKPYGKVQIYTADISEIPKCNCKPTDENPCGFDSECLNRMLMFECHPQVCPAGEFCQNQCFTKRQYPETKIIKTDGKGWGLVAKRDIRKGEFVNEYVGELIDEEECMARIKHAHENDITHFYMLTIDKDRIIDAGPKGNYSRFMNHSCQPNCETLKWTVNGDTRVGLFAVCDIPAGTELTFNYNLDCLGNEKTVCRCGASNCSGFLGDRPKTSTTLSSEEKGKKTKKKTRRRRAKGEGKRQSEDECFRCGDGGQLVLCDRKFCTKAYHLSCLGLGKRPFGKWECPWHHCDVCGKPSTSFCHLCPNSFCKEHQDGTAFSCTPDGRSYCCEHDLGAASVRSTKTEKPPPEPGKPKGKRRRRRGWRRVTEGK

[15] = target: DNA (cytosine-5)-methyltransferase 1 (Homo sapiens, UniProt P26358); assay: inhibition of DNA methylation by DNMT1 – biochemical, fluorescent molecular beacon, confirmation (AID 602386); format: functional
Chain of DNA (cytosine-5)-methyltransferase 1 (P26358 whole entry): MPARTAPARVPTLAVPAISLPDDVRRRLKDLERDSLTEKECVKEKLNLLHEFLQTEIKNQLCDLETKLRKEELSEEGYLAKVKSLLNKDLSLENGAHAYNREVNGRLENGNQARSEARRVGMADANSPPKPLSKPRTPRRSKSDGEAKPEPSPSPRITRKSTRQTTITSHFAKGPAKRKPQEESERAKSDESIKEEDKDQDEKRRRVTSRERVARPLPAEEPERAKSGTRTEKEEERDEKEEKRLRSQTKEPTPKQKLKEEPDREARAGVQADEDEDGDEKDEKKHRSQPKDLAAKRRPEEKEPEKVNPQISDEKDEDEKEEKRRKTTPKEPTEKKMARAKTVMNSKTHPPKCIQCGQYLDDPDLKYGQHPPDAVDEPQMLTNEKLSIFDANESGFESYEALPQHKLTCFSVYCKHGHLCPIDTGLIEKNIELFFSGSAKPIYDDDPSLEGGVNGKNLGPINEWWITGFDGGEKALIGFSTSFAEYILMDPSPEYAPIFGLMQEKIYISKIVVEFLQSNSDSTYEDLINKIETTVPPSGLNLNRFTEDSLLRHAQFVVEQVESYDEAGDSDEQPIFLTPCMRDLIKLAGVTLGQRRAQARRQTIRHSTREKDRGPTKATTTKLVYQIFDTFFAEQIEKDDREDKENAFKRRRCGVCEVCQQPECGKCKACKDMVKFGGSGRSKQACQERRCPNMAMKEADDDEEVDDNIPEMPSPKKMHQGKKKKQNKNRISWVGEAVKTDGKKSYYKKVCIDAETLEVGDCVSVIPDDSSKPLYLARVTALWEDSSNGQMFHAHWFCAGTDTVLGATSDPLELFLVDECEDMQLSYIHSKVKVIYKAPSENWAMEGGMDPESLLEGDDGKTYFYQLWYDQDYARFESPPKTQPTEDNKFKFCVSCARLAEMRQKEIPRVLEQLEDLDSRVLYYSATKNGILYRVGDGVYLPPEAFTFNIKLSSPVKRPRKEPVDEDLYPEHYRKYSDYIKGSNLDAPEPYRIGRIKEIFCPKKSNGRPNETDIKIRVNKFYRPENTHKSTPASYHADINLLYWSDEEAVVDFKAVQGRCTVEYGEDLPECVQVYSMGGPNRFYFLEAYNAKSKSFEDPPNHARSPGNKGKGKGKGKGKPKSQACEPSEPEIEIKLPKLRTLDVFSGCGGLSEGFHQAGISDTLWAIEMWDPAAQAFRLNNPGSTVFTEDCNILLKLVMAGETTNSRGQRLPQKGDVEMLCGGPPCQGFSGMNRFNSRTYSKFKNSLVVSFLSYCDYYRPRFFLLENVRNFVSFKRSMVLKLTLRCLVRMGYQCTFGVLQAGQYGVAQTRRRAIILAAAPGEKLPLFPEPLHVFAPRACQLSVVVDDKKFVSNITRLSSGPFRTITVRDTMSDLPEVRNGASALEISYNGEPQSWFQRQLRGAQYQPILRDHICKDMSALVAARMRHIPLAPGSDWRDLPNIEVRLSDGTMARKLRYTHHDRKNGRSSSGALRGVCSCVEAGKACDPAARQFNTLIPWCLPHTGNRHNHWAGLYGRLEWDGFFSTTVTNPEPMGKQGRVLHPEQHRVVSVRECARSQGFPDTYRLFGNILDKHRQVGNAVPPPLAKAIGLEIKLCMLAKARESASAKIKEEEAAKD

Chain of FAD-linked sulfhydryl oxidase ALR (P55789 whole entry): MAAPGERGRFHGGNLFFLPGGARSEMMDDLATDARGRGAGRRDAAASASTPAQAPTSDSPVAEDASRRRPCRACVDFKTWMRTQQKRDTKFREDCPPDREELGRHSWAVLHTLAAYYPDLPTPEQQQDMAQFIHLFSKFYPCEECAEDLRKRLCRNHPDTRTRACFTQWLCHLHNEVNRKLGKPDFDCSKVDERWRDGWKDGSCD

Cc1ccc2c(c1)N(C)/C(=C/c1cccc[n+]1C)S2
EC50 (cells): 0.015 µM (active) | AC50 [1]: 63.1 µM (active) | EC50 [2]: < 0.1 µM (active) | EC50 [3]: > 60 µM (not active) | IC50 (HEK293 [4]): 10.6 µM (active) | IC50 (HEK293 [5]): 17 µM (inactive) | EC50 (HEK293 [6]): 13.3 µM (active) | IC50 (HEK293 [7]): > 20 µM (inactive)

COc1cc(/C=C2/C(=N)N3C(=NC2=O)SN=C3S(C)(=O)=O)ccc1OC(=O)c1ccco1
IC50 [8]: 94.8 µM (active) | IC50 (Prothrombin): 34.4 µM (active) | IC50 [9]: 31.9 µM (active)

COc1ccc(C(=O)Nc2ccc(NC(=O)c3cc4ccccc4o3)cc2)cc1OC
IC50 (Jurkat): > 79 µM (inactive) | IC50 (HEK293 [10]): > 80 µM (inactive) | IC50 (HEK293 [11]): > 80 µM (inactive)

CC1Cc2cc(C(=O)C3=C(O)C(=O)N(Cc4ccco4)C3c3cccs3)ccc2O1 (configuration not stated)
EC50 [12]: 8.54 µM (active) | AC50 (Escherichia coli): 18.3 µM (active) | EC50 (H4): 35.2 µM (active) | EC50 [13]: 11.9 µM (active)

COc1ccc(C2SCCN2S(=O)(=O)c2ccccc2)cc1 (configuration not stated)
AC50 (Escherichia coli): 95.3 µM (active)

COc1ccc(/C=C2\Oc3cc(OCC(=O)N4CCC[C@H]4C(=O)O)ccc3C2=O)c(OC)c1
IC50 [8]: > 100 µM (inactive) | IC50 (Prothrombin): 14.3 µM (active) | IC50 [9]: 11 µM (active)

Cc1cc(-c2nc3ncccc3o2)ccc1NC(=O)c1ccc([N+](=O)[O-])o1
IC50 (Jurkat): 19.4 µM (active) | IC50 (HEK293 [10]): 32 µM (inactive) | IC50 (HEK293 [11]): 30 µM (inactive)

ClN=C1C=CC=CC1=NCl
AC50 [14]: 4.62 µM (active) | IC50 [15]: 7.2 µM (active)
